Columns and labels:
[1] = tested on: AhR; details: cultured mammal cell; cited from earlier work
[2] = tested on: AhR-GUS and AhRV-GUS transformed tobacco plant (mouse AhR/AhRV, Arnt, XRE-GUS); assay: GUS activity in transformed tobacco plants (AhR-GUS / AhRV-GUS) treated with AhR-ligand; format: in vivo, Nicotiana tabacum cv. Sumsun N N; details: for enhancement of the GUS activity in the presence of AhR-ligands: medium with 25 μM 20-MC, 25 μM β-NF, 50 μM indigo, stem and leaf soluble protein, FIG. 10
Excerpt: A AhR-ligand specific gene expression system for plants was constructed. It was constructed by introducing a AhR, Arnt and XRE to a plant. From a liver cDNA library prepared from C57BL/6 mouse, an AhR cDNA (Schmidt, J. V., et al, 1993) and an Arnt cDNA (Reisz-Porszasz, S., et al, 1994) were cloned. In order to constitutively express both cDNAs in a plant, there were constructed two kinds of plant expression plasmids pSKA2G and pSKAvAtG. The plasmids comprising a tandemly aligned XRE sequence, a transcription factor expression unit (i.e. the first transcription structure) inserted in an expression unit composed of a cauliflower mosaic virus 35S promoter (CaMV35S-P) and a nopaline synthase terminator (Nos-T), and a reporter unit composed of a reporter gene and Nos-T (structures are shown in FIG. 7). The PSKAvAtG contains a chimera AhR (AhRV) in which transcriptional activation domain of AhR is substituted with VP16 transcriptional activation domain (AhRV gene). Using Agrobacterium with each plasmid introduced therein, a tobacco plant (Nicotiana tabacum cv. Sumsun N N) was transformed by a leaf disc method.
The plants which had been introduced with each plant expression plasmid were selected two times by antibiotic kanamycin. Each genomic DNA was extracted from re-differentiated individuals after kanamycin selection, and genomic PCR analysis was performed using primers specific for each of AhR or AhRV, Arnt and GUS.
The plant transformed with either pSKA2G or pSKAvAtG is designated as AhR-GUS or AhRV-GUS plants, respectively. Axillary buds were removed from all transformed plants. […] Then the soluble protein fractions were extracted from stem and leaf parts of the grown buds, and the GUS activities of the fractions were measured. The medium were added with 0.01% Tween 20 and an AhR-ligand (20-MC) or a solvent DMSO solution to a final concentration of 0.1%. Similarly, a axillary bud was cultured for 2 weeks on an MS medium in the presence of various concentrations (8 grades) of AhR-ligand 20 MC. The AhR-ligand dose dependent expression of the reporter was analyzed. In addition, similarly, a axillary bud was cultured for 2 weeks on an MS medium containing 25 μM 20-MC, and tissue-specific expression of a reporter in a plant was analyzed using a GUS staining method. That is, each tissue of a plant was impregnation-treated in a X-Gluc solution (0.1M sodium phosphate buffer, pH 7.0, 1.9 mM X-glucuronide, 0.5 mM K3Fe(CN)6, 0.5 mM K4Fe(CN)6, 0.3% (v/v) Triton X-100, 20% methanol) under reduced pressure, then incubated at 37° C. overnight, and 70% ethanol was added to stop the reaction. Thereafter, decoloration was performed in 70% ethanol, and the tissue was observed under an optical microscope or stereomicroscope.

[3] = tested on: LexA operator promoter-LacZ reporter unit in yeast L40 strain expressing XDV/XVD (mouse AhR-ligand binding control region); assay: Yeast reporter assay system for XDV/XVD (LacZ activity); format: cell-based; details: yeast introduced with XDV/XVD, FIG. 6
Description: Yeasts introduced with various XDV/XVD expression plasmids were pre-cultured overnight in a liquid selective medium containing glucose as a carbon source, cultured for 14 to 16 hours in a liquid selective medium containing an AhR-ligand and galactose(as a carbon source), and the LacZ activity was measured.
By using a reporter gene assay system using a yeast expression system, assessment of performance of XDV/XVD was performed.
An yeast L40 strain having a reporter unit composed of a LexA operator promoter and a β-galactosidase gene (LacZ) in a chromosome [(MATa his3Δ200 trp1-901 leu2-3112 ade2 LYS2:: (41exAop-HIS3)URA3:: (81exAop-lacZ)GAL4) (Invitrogen, Netherland)) was transformed, and assessed by the LacZ activity dependent on the expression of XDV/XVD and ligand treatment as an index. […]
Various AhR-ligands (dioxins) were dissolved in DMSO (a final concentration of DMSO in a medium was adjusted at 0.1%). […] An absorbance at 415 nm of the supernatant was measured. A LacZ unit was calculated by the following calculation equation:
LacZ unit=absorbance at 415 nm/[absorbance at 600 nm of a diluted cultured yeast solution in which 200 μL of cultured yeast solution was diluted up to 1 mL]×reaction time (min)]×1000

| SMILES | TCDD concentration detectable [1] [ppb] | enhancement of the GUS activity in the presence of AhR-ligands [2] | LacZ activity on AhR-ligand treatment, in words [3] | GUS staining of tissues (X-Gluc) ([2]; 2 weeks on MS medium containing 25 μM 20-MC, leaf and stem, FIG. 12 B) | 20-MC concentration in a medium that can be detected by the transformed plant ([2]; axillary bud cultured 2 weeks on MS medium, 8 grades of 20-MC) [nM] | GUS activity dependent on AhR-ligand treatment, line 4 and line 21 of AhRV-GUS plant ([2]; line 4 and line 21 of the AhRV-GUS plant, stronger than GUS under CaMV 35S-P, FIG. 9) |
| --- | --- | --- | --- | --- | --- | --- |
| Clc1cc2c(cc1Cl)Oc1cc(Cl)c(Cl)cc1O2 [TCDD, 2,3,7,8-TCDD] | 0.01 | – | – | – | – | – |
| O=c1cc(-c2ccccc2)oc2ccc3ccccc3c12 [β-NF, β-naphthoflovone] | – | remarkable | enhancement of the LacZ activity was recognized | – | – | – |
| Cc1ccc2cc3c(ccc4ccccc43)c3c2c1CC3 [20-MC, 20-methylcholanthrene] | – | remarkable | – | remarkable expression of a GUS reporter gene | 5 | very strong enhancement of the GUS activity |
